According to BindingDB's records for doi:10.1021/cb200305u (Harvard Medical School, 2012):

What was measured:
Test in all cases: In Vitro Kinase Assay
Aurora kinase C = target: T1, Aurora kinase C (Homo sapiens, UniProt Q9UQB9)
T1 sequence (Q9UQB9 whole entry): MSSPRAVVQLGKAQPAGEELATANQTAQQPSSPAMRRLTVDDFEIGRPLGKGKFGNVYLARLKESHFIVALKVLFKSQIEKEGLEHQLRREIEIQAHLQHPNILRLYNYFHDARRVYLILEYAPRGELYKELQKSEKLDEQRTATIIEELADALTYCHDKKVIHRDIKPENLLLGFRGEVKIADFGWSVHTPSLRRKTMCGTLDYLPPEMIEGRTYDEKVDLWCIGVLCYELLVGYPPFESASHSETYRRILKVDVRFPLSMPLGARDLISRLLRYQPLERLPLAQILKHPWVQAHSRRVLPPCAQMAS
Description: (§1) In vitro kinase assay of Aurora A, B, and C using Z-LYTE technology (Invitrogen) and ATP at Km apparent for each kinase.

Aurora kinase A = target: T2, Aurora kinase A (Homo sapiens, UniProt O14965)
T2 sequence (O14965 whole entry): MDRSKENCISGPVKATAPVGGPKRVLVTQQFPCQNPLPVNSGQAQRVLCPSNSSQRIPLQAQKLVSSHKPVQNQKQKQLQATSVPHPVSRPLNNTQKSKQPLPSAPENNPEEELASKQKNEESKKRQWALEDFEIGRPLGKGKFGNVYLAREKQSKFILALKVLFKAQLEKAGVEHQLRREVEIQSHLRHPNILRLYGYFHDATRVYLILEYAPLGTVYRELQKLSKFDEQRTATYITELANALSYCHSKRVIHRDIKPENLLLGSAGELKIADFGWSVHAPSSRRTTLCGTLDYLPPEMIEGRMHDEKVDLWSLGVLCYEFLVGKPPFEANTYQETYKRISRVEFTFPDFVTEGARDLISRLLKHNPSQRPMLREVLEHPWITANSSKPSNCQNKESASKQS
Description: as §1

Aurora kinase B = Aurora kinase B (Homo sapiens, UniProt Q96GD4)
Sequence of Aurora kinase B (Q96GD4 whole entry): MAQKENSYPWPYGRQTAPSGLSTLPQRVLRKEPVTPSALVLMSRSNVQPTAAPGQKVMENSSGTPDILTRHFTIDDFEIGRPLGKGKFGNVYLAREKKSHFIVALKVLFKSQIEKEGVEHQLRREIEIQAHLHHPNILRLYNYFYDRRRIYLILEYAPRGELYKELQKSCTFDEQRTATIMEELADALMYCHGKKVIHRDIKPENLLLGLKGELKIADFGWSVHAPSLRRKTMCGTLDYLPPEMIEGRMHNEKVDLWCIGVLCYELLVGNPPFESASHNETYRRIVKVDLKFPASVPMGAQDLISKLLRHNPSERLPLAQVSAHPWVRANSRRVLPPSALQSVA
Description: as §1

CCN(CCCOc1ccc2c(Nc3cc(CC(=O)Nc4cccc(F)c4)n[nH]3)ncnc2c1)CCOP(=O)(O)O
IC50 (Aurora kinase C): 25.3 nM

CN1C(=O)c2ccccc2N(C)c2nc(Nc3ccc(S(N)(=O)=O)cc3)ncc21
IC50 (Aurora kinase A): 3.4 nM | IC50 (Aurora kinase B): 8.4 nM

CCN1CCN(C(=O)Cc2ccc(Nc3ncc(F)c(Nc4ccc(C(=O)Nc5ccccc5Cl)cc4)n3)cc2)CC1 [Aurora Inhibitor, 35]
IC50 (Aurora kinase A): 3.2 nM | IC50 (Aurora kinase B): 1380 nM | IC50 (Aurora kinase C): 432 nM

CN1C(=O)c2ccccc2N(C)c2nc(Nc3ccc(N4CCC(O)CC4)cc3)ncc21 [Benzo[e]pyrimido[5,4-b][1,4]diazepin-6(11H)-one, 1]
IC50 (Aurora kinase A): 5.6 nM | IC50 (Aurora kinase C): 24.6 nM

CN1CCN(c2ccc(Nc3ncc4c(n3)N(C)c3ccccc3C(=O)N4C)cc2)CC1 [Benzo[e]pyrimido[5,4-b][1,4]diazepin-6(11H)-one, 3]
IC50 (Aurora kinase A): 7.2 nM | IC50 (Aurora kinase B): 25.9 nM | IC50 (Aurora kinase C): 40.5 nM

CN1C(=O)c2ccccc2N(C)c2nc(Nc3ccc(S(=O)(=O)N4CCC(O)CC4)cc3)ncc21 [Benzo[e]pyrimido[5,4-b][1,4]diazepin-6(11H)-one, 4]
IC50 (Aurora kinase A): 8.8 nM | IC50 (Aurora kinase B): 28.6 nM

CC1CCN(S(=O)(=O)c2ccc(Nc3ncc4c(n3)N(C)c3ccccc3C(=O)N4C)cc2)CC1 [Benzo[e]pyrimido[5,4-b][1,4]diazepin-6(11H)-one, 5]
IC50 (Aurora kinase A): 16.8 nM | IC50 (Aurora kinase B): 45.1 nM

CCN1CCN(C(=O)c2ccc(Nc3ncc4c(n3)N(C)c3ccccc3C(=O)N4C)cc2)CC1 [Benzo[e]pyrimido[5,4-b][1,4]diazepin-6(11H)-one, 7]
IC50 (Aurora kinase A): 5.9 nM | IC50 (Aurora kinase B): 15.2 nM

CCN1CCN(C(=O)Cc2ccc(Nc3ncc4c(n3)N(C)c3ccccc3C(=O)N4C)cc2)CC1 [Benzo[e]pyrimido[5,4-b][1,4]diazepin-6(11H)-one, 8]
IC50 (Aurora kinase A): 6.1 nM | IC50 (Aurora kinase B): 18.7 nM

CN1C(=O)c2ccccc2N(C)c2nc(Nc3ccc(OCc4ccccn4)cc3)ncc21 [Benzo[e]pyrimido[5,4-b][1,4]diazepin-6(11H)-one, 9]
IC50 (Aurora kinase A): 18.4 nM | IC50 (Aurora kinase B): 39.3 nM

CN1C(=O)c2ccccc2N(C)c2nc(Nc3ccc(OCc4cccc(F)c4)cc3)ncc21 [Benzo[e]pyrimido[5,4-b][1,4]diazepin-6(11H)-one, 10]
IC50 (Aurora kinase A): 323 nM | IC50 (Aurora kinase B): 512 nM

CN1C(=O)c2ccccc2N(C)c2nc(Nc3ccc(OCc4cccc(Cl)c4)cc3)ncc21 [Benzo[e]pyrimido[5,4-b][1,4]diazepin-6(11H)-one, 11]
IC50 (Aurora kinase A): 83.9 nM | IC50 (Aurora kinase B): 352 nM

CN1CCN(C(=O)c2ccc(Nc3ncc4c(n3)N(C)c3ccccc3C(=O)N4C)cc2C(F)(F)F)CC1 [Benzo[e]pyrimido[5,4-b][1,4]diazepin-6(11H)-one, 12]
IC50 (Aurora kinase A): 9 nM | IC50 (Aurora kinase B): 84.8 nM

CN1CCN(c2ccc(Nc3ncc4c(n3)N(C)c3ccccc3C(=O)N4C)cc2C(F)(F)F)CC1 [Benzo[e]pyrimido[5,4-b][1,4]diazepin-6(11H)-one, 13]
IC50 (Aurora kinase A): 86.8 nM | IC50 (Aurora kinase B): 774 nM

CN1C(=O)c2ccccc2N(C)c2nc(Nc3ccc(OCc4ccccn4)c(Cl)c3)ncc21 [Benzo[e]pyrimido[5,4-b][1,4]diazepin-6(11H)-one, 14]
IC50 (Aurora kinase A): 53.2 nM | IC50 (Aurora kinase B): 417 nM

CN1CCN(C(=O)c2cccc(Nc3ncc4c(n3)N(C)c3ccccc3C(=O)N4C)c2)CC1 [Benzo[e]pyrimido[5,4-b][1,4]diazepin-6(11H)-one, 15]
IC50 (Aurora kinase A): 14.9 nM | IC50 (Aurora kinase B): 36.7 nM

CN1CCN(Cc2cccc(Nc3ncc4c(n3)N(C)c3ccccc3C(=O)N4C)c2)CC1 [Benzo[e]pyrimido[5,4-b][1,4]diazepin-6(11H)-one, 16]
IC50 (Aurora kinase A): 10.7 nM | IC50 (Aurora kinase B): 19.8 nM

CN1CCN(c2cccc(Nc3ncc4c(n3)N(C)c3ccccc3C(=O)N4C)c2)CC1 [Benzo[e]pyrimido[5,4-b][1,4]diazepin-6(11H)-one, 17]
IC50 (Aurora kinase A): 11.9 nM | IC50 (Aurora kinase B): 55.8 nM

CN1c2ccccc2C(=O)Nc2cnc(Nc3ccc(N4CCC(O)CC4)cc3)nc21 [Benzo[e]pyrimido[5,4-b][1,4]diazepin-6(11H)-one, 18]
IC50 (Aurora kinase A): 98.5 nM | IC50 (Aurora kinase B): 216 nM

CN1C(=O)c2ccccc2N(C)c2nc(Nc3ccc(C(=O)N4CCC(O)CC4)c(C(F)(F)F)c3)ncc21 [Benzo[e]pyrimido[5,4-b][1,4]diazepin-6(11H)-one, 19]
IC50 (Aurora kinase A): 5.1 nM | IC50 (Aurora kinase B): 43.7 nM

CN1C(=O)c2ccccc2N(C)c2nc(Nc3ccc(C(=O)N4CCC(O)CC4)c(Cl)c3)ncc21 [Benzo[e]pyrimido[5,4-b][1,4]diazepin-6(11H)-one, 20]
IC50 (Aurora kinase A): 3.2 nM | IC50 (Aurora kinase B): 14.3 nM

Cc1cc(Nc2ncc3c(n2)N(C)c2ccccc2C(=O)N3C)ccc1C(=O)N1CCN(C)CC1 [Benzo[e]pyrimido[5,4-b][1,4]diazepin-6(11H)-one, 21]
IC50 (Aurora kinase A): 3.7 nM | IC50 (Aurora kinase B): 14.5 nM

COc1cc(Nc2ncc3c(n2)N(C)c2ccccc2C(=O)N3C)ccc1C(=O)N1CCN(O)CC1 [Benzo[e]pyrimido[5,4-b][1,4]diazepin-6(11H)-one, 22]
IC50 (Aurora kinase A): 2.6 nM | IC50 (Aurora kinase B): 24.2 nM

CCN1CCN(Cc2ccc(Nc3ncc4c(n3)N(C)c3c(C)cccc3C(=O)N4C)cc2C(F)(F)F)CC1 [Benzo[e]pyrimido[5,4-b][1,4]diazepin-6(11H)-one, 28]
IC50 (Aurora kinase A): 11.6 nM | IC50 (Aurora kinase B): 132 nM

CCN1CCN(Cc2ccc(Nc3ncc4c(n3)N(C)c3c(F)cccc3C(=O)N4C)cc2C(F)(F)F)CC1 [Benzo[e]pyrimido[5,4-b][1,4]diazepin-6(11H)-one, 29]
IC50 (Aurora kinase A): 13.4 nM | IC50 (Aurora kinase B): 487 nM | IC50 (Aurora kinase C): 595 nM

CCN1CCN(Cc2ccc(Nc3ncc4c(n3)N(C)c3cc(C)ccc3C(=O)N4C)cc2C(F)(F)F)CC1 [Benzo[e]pyrimido[5,4-b][1,4]diazepin-6(11H)-one, 30]
IC50 (Aurora kinase A): 146 nM | IC50 (Aurora kinase B): 230 nM

CCN1CCN(Cc2ccc(Nc3ncc4c(n3)N(C)c3cc(F)ccc3C(=O)N4C)cc2C(F)(F)F)CC1 [Benzo[e]pyrimido[5,4-b][1,4]diazepin-6(11H)-one, 31]
IC50 (Aurora kinase A): 298 nM | IC50 (Aurora kinase B): 586 nM
